Measured values as given in paper PMC8704611, “Synthesis, Molecular Docking Analysis, and Biological Evaluations of Saccharide-Modified Sulfonamides as Carbonic Anhydrase IX Inhibitors” (International Journal of Molecular Sciences, 2021).
Like-named read-outs stand apart in the source and are kept apart here.

Key:
[1] = molecular target: hCA IX (Homo sapiens, UniProt Q16790); test: CA inhibition assay (hydrolysis of 4-nitrophenylacetate); assay type: biochemical; conditions: 4-NPA hydrolysis; three independent assays, relative errors 5–10%
Source text: (§1) Carbonic anhydrase has the ability to catalyse the hydrolysis of 4-NPA. […] More detailed operations and specific parameters are as reported earlier.

[2] = molecular target: hCA II (Homo sapiens, UniProt P00918); test: as above; assay type: biochemical; conditions: 4-NPA hydrolysis; three independent assays, relative errors 5–10%
Source text: as §1

[3] = molecular target: hCA XII (Homo sapiens, UniProt O43570); test: as above; assay type: biochemical; conditions: 4-NPA hydrolysis; three independent assays, relative errors 5–10%
Chain of hCA XII (O43570 25-354): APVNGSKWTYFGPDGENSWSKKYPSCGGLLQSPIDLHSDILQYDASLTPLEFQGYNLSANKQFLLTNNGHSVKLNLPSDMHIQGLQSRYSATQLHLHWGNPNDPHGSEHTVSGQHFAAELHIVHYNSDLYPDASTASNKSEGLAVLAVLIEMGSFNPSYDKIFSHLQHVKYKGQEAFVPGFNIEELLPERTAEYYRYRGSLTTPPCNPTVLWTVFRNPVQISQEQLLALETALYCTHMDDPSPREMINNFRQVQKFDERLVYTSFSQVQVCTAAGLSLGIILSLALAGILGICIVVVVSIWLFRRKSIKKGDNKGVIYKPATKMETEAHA
Source text: as §1

[4] = system: MDA-MB-231 cells; test: Measurement of extracellular pH; assay type: cell-based; conditions: for Extracellular pH, Hypoxic condition: hypoxia, control 6.84; for Extracellular pH, Normoxic condition: normoxia, control 7.06
Protocol: (§2) The main role of CA IX and XII in tumour development is to regulate the pH of the tumour growth microenvironment so that tumour cells are in a weakly acidic environment. Such an acidic environment is conducive to the growth of tumour cells and protects tumour cells from being killed by chemotherapeutics.
(§3) The changes in extracellular pH were evaluated according to previously published procedures. Cancer cells were grown in the medium containing 10% FBS and incubated in 6-well plates for 12 h. After removing the medium, we added fresh medium to the 6-well plates and incubated them for 48 h under hypoxia or normoxia. Then, we measured the pH of the culture medium immediately after collection. The tested compounds were dissolved in DMSO and diluted to the desired concentration. After the addition of tested compounds, the same procedure was carried out.

[5] = system: MDA-MB-231 cells; test: CCK-8 cell viability assay; assay type: cell-based; conditions: Homo sapiens, MDA-MB-231, 400 μM, 48 h
Protocol: (§4) The CCK-8 assay was used to evaluate the cytotoxicity of compounds 16a, 16b, and 16e on the breast cancer cell line MDA-MB-231 and colon cancer cell line HT-29. MDA-MB-231 and HT-29 are tumour cells that have been reported to express CA IX. We cultivated them under normoxia and hypoxia respectively and then evaluated the effects of the compounds on tumour cell viability at different concentrations.
(§5) Cell viability was tested by CCK-8 assay. The MDA-MB-231, HT-29 and MG-63 cell lines were provided by KeyGEN BioTECH Ltd. (Nanjing, Jiangsu, China). The cancer cell suspension was prepared to 5.0 × 10^4 cells/mL. After adding 100 μL cell suspension into each well of 96-well plates, the 96-well plates were placed in the incubator at 37 °C and 5% CO2 for 24 h. The compounds were diluted to the required concentration with the medium, and 100 μL of the corresponding medium was added to each well. Meanwhile, the negative control group was set up. The plates were incubated in normoxia or hypoxia for 48 h. The CCK-8 solution (10 μL) was added to each well, and the cells were incubated for another 3 h. After removing the bubbles in each well, cell viability was assessed by measuring the absorbance at 450 nm wavelength using a microplate reader. The hypoxia atmosphere consisted of 0.5% O2, 5% CO2, and 94.5% N2. The normoxia atmosphere was air.

[6] = system: HT-29 cells; test: CCK-8 cell viability assay; assay type: cell-based; conditions: for viability at 400 µM: Homo sapiens, HT-29, 400 μM, 48 h
Protocol: as §4, §5

[7] = system: HT-29 cells; test: Measurement of extracellular pH; assay type: cell-based; conditions: for Extracellular pH, Hypoxic condition: hypoxia, control 6.81; for Extracellular pH, Normoxic condition: normoxia, control 7.02
Protocol: as §2, with “chemotherapeutics. We evaluated the effects of 0.1 mM and 1.0 mM of compounds 16a and 16b on the pH of the tumour cell growth environment under normoxia or hypoxia (detailed data is provided in the Tables S5 and S6 of supplementary information).” for “chemotherapeutics.”
as §3

[8] = system: MG-63 cells; test: CCK-8 cell viability assay; assay type: cell-based, human; conditions: for viability at 800 µM: Homo sapiens, MG-63, 800 μM, 48 h
Protocol: The human osteosarcoma cell line MG-63 is a high-expressing cell line of CA IX and XII [24]. We selected compound 16b with the best activity in the above studies to study the cell viability inhibitory activity of MG-63 (detailed data is provided in the Table S4 of supplementary information).
as §5

[9] = hypoxia, read-out: cell viability, Hypoxic condition (%)
[10] = normoxia, read-out: cell viability, Normoxic condition (%)

Row | IC50 [1] [nM] | IC50 [2] [nM] | IC50 [3] [nM] | Structure (SMILES) | Extracellular pH, Hypoxic condition ([4]; MDA-MB-231, 0.1 mM) | Extracellular pH, Normoxic condition ([4]; MDA-MB-231, 0.1 mM) | Extracellular pH, Normoxic condition ([4]; MDA-MB-231, 1.0 mM) | viability at 400 µM [5, 9] [%] | viability at 400 µM [5, 10] [%] | viability at 400 µM [6, 9] [%] | viability at 400 µM [6, 10] [%] | Extracellular pH, Hypoxic condition ([7]; HT-29, 0.1 mM) | Extracellular pH, Normoxic condition ([7]; HT-29, 0.1 mM) | Extracellular pH, Hypoxic condition ([7]; HT-29, 1.0 mM) | Extracellular pH, Normoxic condition ([7]; HT-29, 1.0 mM) | viability at 800 µM [8, 9] [%] | viability at 800 µM [8, 10] [%] | also measured
1 | 99.6 | 88.1 | 146 | COc1cc(-c2cn(-c3ccc(S(N)(=O)=O)cc3)nn2)ccc1NC(=O)CCCC(=O)N[C@@H]1O[C@H](CO)[C@@H](O)[C@H](O)[C@H]1O [Compound 16m, N^1-(2-methoxy-4-(1-(4-sulfamoylphenyl)-1H-1,2,3-triazol-4-yl)phenyl)-N^5-((2R,3R,4S,5S,6R)-3,4,5-trihydroxy-6-(hydroxymethyl)tetrahydro-2H-pyran-2-yl)glutaramide] |  |  |  |  |  |  |  |  |  |  |  |  |  | 
2 | 86.6 | 13.3 | 256 | NS(=O)(=O)c1ccc(-n2cc(-c3cccc(NC(=O)CCC(=O)N[C@@H]4O[C@H](CO)[C@@H](O)[C@H](O)[C@H]4O)c3)nn2)cc1 [Compound 16b, N^1-(3-(1-(4-sulfamoylphenyl)-1H-1,2,3-triazol-4-yl)phenyl)-N^4-((2R,3R,4S,5S,6R)-3,4,5-trihydroxy-6-(hydroxymethyl)tetrahydro-2H-pyran-2-yl)succinamide] | 6.88 | 7.02 | 7.20 | 86.5 ± 1.92 | 90.5 ± 0.965 | 81.1 ± 2.43 | 89.67 ± 0.554 | 6.82 | 6.96 | 7.27 | 7.15 | 76.6 ± 3.51 | 81.6 ± 3.34 | effect on extracellular pH ([4]; MDA-MB-231, 0.1 mM and 1.0 mM): improve the extracellular pH; Extracellular pH, Hypoxic condition ([4]; MDA-MB-231, 1.0 mM): 7.20; decrease in cell viability ([6]; HT-29, highest concentration of 400 μM): 20%; effect on extracellular pH ([7]; HT-29, 0.1 mM and 1.0 mM): improve the extracellular pH; inhibition of MG-63 cell viability ([8]; MG-63, normoxia and hypoxia): concentration-dependent
3 | 84.7 | 41.6 | 162 | Cc1cc(-c2cn(-c3ccc(S(N)(=O)=O)cc3)nn2)ccc1NC(=O)CCC(=O)N[C@@H]1O[C@H](CO)[C@@H](O)[C@H](O)[C@H]1O [Compound 16e, N^1-(2-methyl-4-(1-(4-sulfamoylphenyl)-1H-1,2,3-triazol-4-yl)phenyl)-N^4-((2R,3R,4S,5S,6R)-3,4,5-trihydroxy-6-(hydroxymethyl)tetrahydro-2H-pyran-2-yl)succinamide] |  |  |  | 90.6 ± 2.76 | 87.2 ± 2.28 | 87.7 ± 1.79 | 91.5 ± 2.64 |  |  |  |  |  |  | 
4 |  |  |  | CC(=O)Nc1nnc(S(N)(=O)=O)s1 [AZM, acetazolamide, reference compound] | 6.97 | 7.05 | 7.23 | 85.2 ± 1.96 | 96.2 ± 2.28 | 89.53 ± 0.161 | 91.7 ± 2.59 | 6.90 | 6.97 | 7.28 | 7.26 | 81.7 ± 1.17 | 87.1 ± 1.94 | 
